Several values for one entry are separate records, joined by “and”; a condition that tells them apart may be missing. Equal entries are not always repeated. Square brackets hold non-standard residues; d marks the D form. Peptide text beside a SMILES is read from it. NMeF = CN[C@@H](Cc1ccccc1)C(=O)O
Legend:
Neuromedin-K receptor [1] = target: T1, Neuromedin-K receptor (Cavia porcellus, UniProt P30098)
T1 sequence (P30098 whole entry): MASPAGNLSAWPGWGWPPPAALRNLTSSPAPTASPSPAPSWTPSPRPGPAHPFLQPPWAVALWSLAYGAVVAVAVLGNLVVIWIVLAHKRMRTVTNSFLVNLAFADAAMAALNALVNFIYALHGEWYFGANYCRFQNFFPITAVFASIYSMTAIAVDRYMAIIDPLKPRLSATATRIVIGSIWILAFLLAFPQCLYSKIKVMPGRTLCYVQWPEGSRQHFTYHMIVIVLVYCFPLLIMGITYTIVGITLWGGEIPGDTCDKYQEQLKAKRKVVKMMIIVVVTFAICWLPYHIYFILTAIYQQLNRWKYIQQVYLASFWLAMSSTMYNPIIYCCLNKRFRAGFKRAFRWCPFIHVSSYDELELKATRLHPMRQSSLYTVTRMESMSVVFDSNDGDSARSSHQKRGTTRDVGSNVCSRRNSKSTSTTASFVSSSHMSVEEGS

Neuromedin-K receptor [2] = target: T2, Neuromedin-K receptor (Mus musculus, UniProt P47937)
T2 sequence (P47937 whole entry): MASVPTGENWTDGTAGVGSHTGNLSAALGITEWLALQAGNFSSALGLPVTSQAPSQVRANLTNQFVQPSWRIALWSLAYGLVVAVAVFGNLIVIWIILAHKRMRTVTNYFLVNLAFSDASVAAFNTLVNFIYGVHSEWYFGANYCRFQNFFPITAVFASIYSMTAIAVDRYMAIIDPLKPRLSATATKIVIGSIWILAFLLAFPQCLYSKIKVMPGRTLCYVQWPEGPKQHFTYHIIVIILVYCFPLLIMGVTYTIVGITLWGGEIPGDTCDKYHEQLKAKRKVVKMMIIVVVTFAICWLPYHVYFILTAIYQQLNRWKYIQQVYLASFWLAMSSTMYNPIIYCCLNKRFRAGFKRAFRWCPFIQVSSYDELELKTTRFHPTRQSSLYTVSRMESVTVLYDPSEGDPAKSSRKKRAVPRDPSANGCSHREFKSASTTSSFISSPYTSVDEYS

Neuromedin-K receptor [3] = target: T3, Neuromedin-K receptor (Meriones unguiculatus, UniProt Q2YHR0)
T3 sequence (Q2YHR0 whole entry): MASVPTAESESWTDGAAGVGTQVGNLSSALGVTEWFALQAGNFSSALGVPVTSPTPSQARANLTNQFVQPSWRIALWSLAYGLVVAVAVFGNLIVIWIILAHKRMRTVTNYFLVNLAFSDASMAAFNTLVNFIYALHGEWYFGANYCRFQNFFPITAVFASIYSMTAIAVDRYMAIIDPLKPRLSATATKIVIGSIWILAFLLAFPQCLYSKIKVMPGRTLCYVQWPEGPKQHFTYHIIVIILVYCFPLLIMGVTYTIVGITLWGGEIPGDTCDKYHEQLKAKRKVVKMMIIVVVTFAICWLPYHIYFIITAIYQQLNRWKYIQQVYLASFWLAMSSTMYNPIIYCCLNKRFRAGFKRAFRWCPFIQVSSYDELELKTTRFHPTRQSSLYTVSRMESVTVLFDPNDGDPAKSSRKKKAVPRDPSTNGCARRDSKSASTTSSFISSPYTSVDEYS

Neuromedin-K receptor [4] = target: T4, Neuromedin-K receptor (Homo sapiens, UniProt P29371)
T4 sequence (P29371 whole entry): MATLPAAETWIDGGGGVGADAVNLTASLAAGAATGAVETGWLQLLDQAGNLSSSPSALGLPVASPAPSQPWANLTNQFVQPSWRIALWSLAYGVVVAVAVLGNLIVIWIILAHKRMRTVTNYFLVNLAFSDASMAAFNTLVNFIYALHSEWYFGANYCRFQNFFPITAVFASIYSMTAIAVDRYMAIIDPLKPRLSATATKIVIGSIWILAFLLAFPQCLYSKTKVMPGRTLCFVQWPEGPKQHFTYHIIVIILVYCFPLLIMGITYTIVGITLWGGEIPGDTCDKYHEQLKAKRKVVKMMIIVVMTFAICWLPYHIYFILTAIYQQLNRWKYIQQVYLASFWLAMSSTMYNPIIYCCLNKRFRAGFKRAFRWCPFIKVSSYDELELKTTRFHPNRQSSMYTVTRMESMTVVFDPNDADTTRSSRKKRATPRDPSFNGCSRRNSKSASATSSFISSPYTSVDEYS

Substance-K receptor [5] = target: T5, Substance-K receptor (Cavia porcellus, UniProt Q64077)
T5 sequence (Q64077 whole entry): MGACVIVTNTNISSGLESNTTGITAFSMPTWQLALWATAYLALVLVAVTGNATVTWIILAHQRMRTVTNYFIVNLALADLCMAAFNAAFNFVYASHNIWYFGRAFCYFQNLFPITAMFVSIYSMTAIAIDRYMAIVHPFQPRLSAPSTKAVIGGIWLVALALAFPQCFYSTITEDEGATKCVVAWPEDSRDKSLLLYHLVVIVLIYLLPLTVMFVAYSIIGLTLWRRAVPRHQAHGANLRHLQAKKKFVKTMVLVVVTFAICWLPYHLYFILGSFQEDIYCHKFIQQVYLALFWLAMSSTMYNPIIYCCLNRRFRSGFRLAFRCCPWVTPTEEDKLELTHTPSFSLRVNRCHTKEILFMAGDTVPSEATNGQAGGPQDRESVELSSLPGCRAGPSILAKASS

Substance-K receptor [6] = target: T6, Substance-K receptor (Rattus norvegicus, UniProt P16610)
T6 sequence (P16610 whole entry): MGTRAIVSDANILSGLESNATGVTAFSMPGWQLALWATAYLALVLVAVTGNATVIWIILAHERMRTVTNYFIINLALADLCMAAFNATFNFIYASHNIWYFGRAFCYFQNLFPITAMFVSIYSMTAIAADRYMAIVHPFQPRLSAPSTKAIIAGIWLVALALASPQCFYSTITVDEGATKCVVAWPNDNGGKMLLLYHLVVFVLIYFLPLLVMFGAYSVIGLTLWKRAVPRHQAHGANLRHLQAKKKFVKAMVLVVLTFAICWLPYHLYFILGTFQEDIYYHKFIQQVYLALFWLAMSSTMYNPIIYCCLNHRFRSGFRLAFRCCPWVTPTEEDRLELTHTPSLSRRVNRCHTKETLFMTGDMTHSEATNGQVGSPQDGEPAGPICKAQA

Substance-P receptor [7] = target: Substance-P receptor (Rattus norvegicus, UniProt P14600)
Substance-P receptor (Rattus norvegicus, UniProt P14600), sequence (P14600 whole entry): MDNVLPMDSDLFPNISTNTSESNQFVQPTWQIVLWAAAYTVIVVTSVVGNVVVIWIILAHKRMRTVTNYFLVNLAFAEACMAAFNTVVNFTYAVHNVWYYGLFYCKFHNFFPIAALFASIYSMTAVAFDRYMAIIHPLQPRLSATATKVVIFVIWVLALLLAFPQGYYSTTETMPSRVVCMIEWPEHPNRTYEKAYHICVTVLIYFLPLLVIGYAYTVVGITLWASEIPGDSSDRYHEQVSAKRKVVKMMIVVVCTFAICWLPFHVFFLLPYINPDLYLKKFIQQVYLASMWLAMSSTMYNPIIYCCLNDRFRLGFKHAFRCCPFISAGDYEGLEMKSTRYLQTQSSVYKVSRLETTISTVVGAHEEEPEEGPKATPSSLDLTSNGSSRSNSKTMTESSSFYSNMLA

Substance-P receptor [8] = target: Substance-P receptor (Cavia porcellus, UniProt P30547)
Substance-P receptor (Cavia porcellus, UniProt P30547), sequence (P30547 whole entry): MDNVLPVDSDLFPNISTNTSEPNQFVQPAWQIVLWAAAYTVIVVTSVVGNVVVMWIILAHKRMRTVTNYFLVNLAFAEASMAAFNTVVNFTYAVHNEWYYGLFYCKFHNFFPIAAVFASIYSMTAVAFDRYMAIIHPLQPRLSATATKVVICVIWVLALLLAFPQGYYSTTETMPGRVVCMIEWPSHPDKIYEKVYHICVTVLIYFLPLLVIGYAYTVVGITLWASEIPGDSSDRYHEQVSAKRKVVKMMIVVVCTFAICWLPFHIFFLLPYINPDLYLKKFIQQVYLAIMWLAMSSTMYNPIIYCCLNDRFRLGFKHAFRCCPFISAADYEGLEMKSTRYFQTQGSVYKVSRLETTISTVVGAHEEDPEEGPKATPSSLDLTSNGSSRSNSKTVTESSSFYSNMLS

Substance-K receptor [9] = target: T7, Substance-K receptor (Homo sapiens, UniProt P21452)
T7 sequence (P21452 whole entry): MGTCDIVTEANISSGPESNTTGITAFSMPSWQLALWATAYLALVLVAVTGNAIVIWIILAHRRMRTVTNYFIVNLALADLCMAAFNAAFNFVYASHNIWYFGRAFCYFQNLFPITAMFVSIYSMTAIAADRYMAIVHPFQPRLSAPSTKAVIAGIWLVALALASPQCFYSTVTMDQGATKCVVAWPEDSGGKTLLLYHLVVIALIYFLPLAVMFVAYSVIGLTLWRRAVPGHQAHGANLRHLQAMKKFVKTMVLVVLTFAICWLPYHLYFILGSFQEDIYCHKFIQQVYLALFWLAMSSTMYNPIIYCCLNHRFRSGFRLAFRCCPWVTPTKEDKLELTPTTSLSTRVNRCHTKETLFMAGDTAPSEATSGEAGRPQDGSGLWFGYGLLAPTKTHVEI

| Ki (Neuromedin-K receptor [1]) [nM] | Ki (Neuromedin-K receptor [2]) [nM] | Ki (Neuromedin-K receptor [3]) [nM] | Ki (Neuromedin-K receptor [4]) [nM] | Ki (Substance-K receptor [5]) [nM] | Ki (Substance-K receptor [6]) [nM] | Ki (Substance-P receptor [7]) | Ki (Substance-P receptor [8]) [nM] | Ki (Substance-K receptor [9]) [nM] | Structure (SMILES) |
| --- | --- | --- | --- | --- | --- | --- | --- | --- | --- |
| 0.43 | 0.053 | 0.16 | 0.34 |  |  |  |  |  | CSCC[C@H](NC(=O)[C@H](CC(C)C)NC(=O)CNC(=O)[C@H](Cc1ccccc1)N(C)C(=O)[C@H](Cc1ccccc1)NC(=O)[C@H](Cc1ccccc1)NC(=O)[C@H](CC(=O)O)NC(=O)[C@H](Cc1cnc[nH]1)NC(=O)[C@H](CCSC)NC(=O)[C@@H](N)CC(=O)O)C(N)=O [NKB [MePhe7]] (H-DMHDFF[NMeF]GLM-NH2) |
|  |  |  |  | 2.3 |  |  |  |  | CSCC[C@H](NC(=O)[C@H](CC(C)C)NC(=O)CNC(=O)[C@@H](NC(=O)[C@H](Cc1ccccc1)NC(=O)[C@H](CO)NC(=O)[C@H](CC(=O)O)NC(=O)[C@@H](NC(=O)[C@H](CCCCN)NC(=O)[C@@H](N)Cc1cnc[nH]1)[C@@H](C)O)C(C)C)C(N)=O [Neurokinin alpha] |
| 21 | > 10000 | 544 | 206 | 71 | 34 | 1.07 nM and 1.15 nM | 0.23 | 24 | CC(C)(C(N)=O)C1CCN(CCC2(c3ccc(Cl)c(Cl)c3)CN(C(=O)Cc3cc(C(F)(F)F)cc(C(F)(F)F)c3)CCO2)CC1 (centres undefined) [SSR240600] |

Source: BindingDB's records for doi:10.1124/jpet.102.040162 (Sanofi-SynthÉLabo Recherche, 2002)
